Where two headings read alike, the source gives them in different places. Marks after values point to notes of the source that are not given here.
What was measured:
in vitro [1] = details: human, s9
diet-induced obese mice = details: 0.5% w/w in diet; cited from earlier work
FXR = biological target: T1, FXR (Homo sapiens, UniProt Q96RI1); experiment: Alphascreen coactivator recruitment assay; type: biochemical; design: 10 nM of purified GST-tagged FXR-LBD protein; details: Table 8
T1 sequence (Q96RI1 262-486 limits assumed): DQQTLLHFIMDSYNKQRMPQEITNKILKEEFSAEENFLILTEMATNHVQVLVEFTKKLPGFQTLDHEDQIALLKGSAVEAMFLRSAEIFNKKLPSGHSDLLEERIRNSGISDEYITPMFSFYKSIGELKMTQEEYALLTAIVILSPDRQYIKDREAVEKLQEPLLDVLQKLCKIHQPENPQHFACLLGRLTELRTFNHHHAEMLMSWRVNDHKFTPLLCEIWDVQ

[2] = Choleretic effect (bile flow) in bile fistula rat, id and iv infusion; type: in vivo; details: for SV0: maximum bile secretion rate: 1 (μmol/min)/kg bw over 1 h
LXRα = biological target: T2, LXRα (Homo sapiens, UniProt Q13133); experiment: LXR coactivator recruitment (alphascreen); type: biochemical
T2 sequence (Q13133 1-447): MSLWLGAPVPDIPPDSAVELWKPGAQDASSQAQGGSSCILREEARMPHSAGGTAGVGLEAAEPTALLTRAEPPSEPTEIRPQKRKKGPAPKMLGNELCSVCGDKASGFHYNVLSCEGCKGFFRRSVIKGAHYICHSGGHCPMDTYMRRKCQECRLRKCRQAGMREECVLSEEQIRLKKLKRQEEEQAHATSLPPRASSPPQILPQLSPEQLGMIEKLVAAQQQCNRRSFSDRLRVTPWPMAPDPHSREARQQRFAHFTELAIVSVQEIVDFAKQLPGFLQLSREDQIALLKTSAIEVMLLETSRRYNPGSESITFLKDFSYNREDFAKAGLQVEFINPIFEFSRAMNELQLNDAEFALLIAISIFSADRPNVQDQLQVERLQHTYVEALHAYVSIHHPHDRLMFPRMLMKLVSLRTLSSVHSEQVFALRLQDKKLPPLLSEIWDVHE

CAR = biological target: T3, CAR (Homo sapiens, UniProt Q14994); experiment: CAR coactivator recruitment (Lanthascreen); type: biochemical
T3 construct: purchased Invitrogen
T3 sequence (Q14994 109-352 limits assumed): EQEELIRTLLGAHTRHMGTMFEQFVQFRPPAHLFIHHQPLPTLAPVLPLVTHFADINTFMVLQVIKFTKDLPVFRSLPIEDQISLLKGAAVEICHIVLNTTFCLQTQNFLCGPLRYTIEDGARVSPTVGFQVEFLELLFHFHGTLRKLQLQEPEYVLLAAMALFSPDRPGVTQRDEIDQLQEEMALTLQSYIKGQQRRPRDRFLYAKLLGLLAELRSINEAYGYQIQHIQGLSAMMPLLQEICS
Description: CAR: Coactivator Recruitment (Lanthascreen)
Lanthascreen assay (Invitrogen) was used for nulear receptor selectivity assay. The kit uses a terbium-labeled anti-GST antibody, a fluorescein-labeled coactivator peptide, and a NR ligand-binding domain that is tagged with glutathione-S-transferase (GST) in a homogenous mix-and-read assay format. […] Following 1 hour incubation in the dark, TR-FRET measurements were made in the Envision. […] The data was analyzed using GraphPad Prism using the sigmoidal curve equation with variable slope to obtain EC50 values.

bovine serum albumin [3] = biological target: T4, bovine serum albumin (Bos taurus, UniProt P02769); experiment: Albumin binding by equilibrium dialysis; type: in vitro ADME; details: 100 μM BA in 5% bovine serum albumin-saline, pH 7.2
Description: The extent of albumin binding was evaluated by equilibrium dialysis at a fixed BA-albumin ratio. BA was dissolved at a concentration of 100 μM in 5% bovine serum albumin-saline solution (pH 7.2) and left to stand for 24 h at 25° C. Two milliliters of this solution was dialyzed in cellulose sacs having a molecular weight cut-off of 12-14,000 against 25 ml of saline solution. The system was equilibrated by mechanical gently shaking for 72 h at 25° C. BA concentrations of the dialyzed solution (corresponding to the free unbound fraction) and of the starting solution were determined with HPLC-ESI-MS/MS in the same conditions of the previous analysis.
The percent of albumin binding was calculate from the initial BA concentration and from the unbound concentration in the dialyzed fraction.

PPARδ = biological target: T5, PPARδ (Homo sapiens, UniProt Q03181); experiment: PPARδ coactivator recruitment assay
T5 sequence (Q03181 211-439 limits assumed): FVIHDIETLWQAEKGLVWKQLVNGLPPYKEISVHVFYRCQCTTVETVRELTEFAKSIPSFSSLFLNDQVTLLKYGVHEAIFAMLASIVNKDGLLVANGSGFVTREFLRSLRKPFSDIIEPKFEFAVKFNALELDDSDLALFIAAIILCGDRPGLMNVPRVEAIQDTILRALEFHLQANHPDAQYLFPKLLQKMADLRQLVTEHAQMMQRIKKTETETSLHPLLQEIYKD

[4] = Critical micellar concentration by surface tension; type: physicochemical; details: […] NaCl water solution
Description: The critical micellar concentration (CMC) was determined by surface tension (ST) measurements using a maximum bubble-pressure method which give surface tension values […] by potential impurities like static methods are. The tensiometer was a […] Research Corp., Milwaukee, Wis.) equipped with two glass probes of 0.5 and 4.0 mm diameters connected to a source of nitrogen. […] The surface tension values were plotted against the logarithm of the bile salt concentration; the regression lines corresponding to the two parts of the curve (monomeric and micellar phases) were calculated using the method of least squares, and the intersection of the lines was taken as the CMC value. From the ST vs concentration curves the value of the surface tension at the CMC (equilibrium between monomers and multimers species) was also calculated giving information about the detergency power which is related to the size of the micelles with associate surface tension lowering capacity. The CMC was evaluated by surface tension measurements in non equilibrium conditions i.e. in conditions that impurities slightly affect the surface tension results (FIG. 10).

TGR5 = biological target: T6, TGR5 (Homo sapiens, UniProt Q8TDU6); experiment: TGR5 receptor in vitro assay (Table 1); type: cell-based
T6 sequence (Q8TDU6 1-330): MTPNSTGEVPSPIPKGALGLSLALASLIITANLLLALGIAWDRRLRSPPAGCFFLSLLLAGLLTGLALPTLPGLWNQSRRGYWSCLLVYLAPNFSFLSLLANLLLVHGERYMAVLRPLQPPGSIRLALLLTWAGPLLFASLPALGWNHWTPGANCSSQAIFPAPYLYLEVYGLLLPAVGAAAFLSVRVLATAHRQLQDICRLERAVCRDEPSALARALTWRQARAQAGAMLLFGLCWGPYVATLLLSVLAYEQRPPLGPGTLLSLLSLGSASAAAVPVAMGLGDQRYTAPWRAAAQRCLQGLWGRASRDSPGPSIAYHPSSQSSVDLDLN

VDR = biological target: T7, VDR (Homo sapiens, UniProt P11473); experiment: VDR coactivator recruitment assay
T7 sequence (P11473 127-423 limits assumed): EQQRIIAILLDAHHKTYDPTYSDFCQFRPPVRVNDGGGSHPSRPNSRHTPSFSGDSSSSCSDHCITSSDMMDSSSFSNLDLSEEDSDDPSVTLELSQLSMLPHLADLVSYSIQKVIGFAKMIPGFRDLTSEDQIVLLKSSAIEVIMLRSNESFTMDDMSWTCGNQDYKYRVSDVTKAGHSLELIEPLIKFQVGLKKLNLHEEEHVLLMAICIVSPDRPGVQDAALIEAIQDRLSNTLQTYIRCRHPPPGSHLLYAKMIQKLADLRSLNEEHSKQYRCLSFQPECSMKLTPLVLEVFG

[5] = Octanol/water partition coefficient (shake-flask); type: physicochemical; details: pH 8
HepG2 cells [6] = experiment: cells; details: Homo sapiens, HepG2, 4 h, read-out: APOPTOSIS Caspase-3 activation EC50
intestinal bacteria = experiment: Metabolic stability in human stool culture (7α-dehydroxylation); type: in vitro ADME
Description: Homogenized fresh human stools (500 mg) were transferred into sterile vials to which 5 mL of sterilized chopped meat-glucose medium (Scott Lab., Fiskville, R.I.) was added. BA was then added at a final concentration of 0.05 mM. […] The samples were centrifuged at 3500 rpm for 10 min; from the supernatant the BA were isolated by C-18 solid-phase extraction and analyzed by TLC and HPLC-ES-MS/MS.
Thin-layer chromatography (TLC), utilizing silica gel 0.25 mm thickness plates (Merck, Darmstat, Germany), was employed as the first screening test. The solvent system used for the separation of conjugated BA was composed of propionic acid/isoamyl acetate/water/N-propanol (3:4:1:2, v/v/v/v; solvent I), and that of the unconjugated BA was acetic acid/carbon tetrachloride/isopropyl ether/isoamyl acetate/water/N-propanol/benzene (1:4:6:8:2:2, v/v/v/v/v/v; solvent II).

HepG2 cells [7] = experiment: cells; details: Homo sapiens, HepG2, 4 h, read-out: NECROSIS LDH release EC50
[8] = Biliary secretion and metabolism in bile fistula rat, id and iv infusion; details: rat, bile, 1 μmol/kg/min
[9] = values from literature; cited from earlier work
[10] = values from literature; cited from earlier work; remark: listed apart in the source
bovine serum albumin [11] = biological target: T4, bovine serum albumin; details: values from literature; cited from earlier work
[12] = values from literature; cited from earlier work; remark: listed apart in the source
in vitro [13] = details: human, HepG2 cells
wild-type mice = experiment: Locomotor activity of wild-type mice given Ex-4; type: in vivo, mouse
Excerpt: To further evaluate the metabolic role of enhanced TGR5 signaling, we assessed the impact of transgenic overexpression of TGR5 in vivo in the context of DIO in mice. TGR5 transgenic mice (TGR5-Tg) were generated by oocyte injection of the bacterial artificial chromosome (BAC) RP23-278N1. […] The absence of weight gain in TGR5-Tg mice, in the wake of an increase in energy expenditure, was explained by a reduction of locomotor activity. Since GLP-1 receptor knockout mice display a marked hyperactivity (Hansotia et al., 2007, J. Clin. Invest. 117, 143-152), we administered the GLP-1 receptor agonist Ex-4 to wild-type mice in order to assess whether the decrease in locomotor activity in TGR5-Tg mice could be linked to GLP-1 secretion.

T4 sequence (P02769 25-607): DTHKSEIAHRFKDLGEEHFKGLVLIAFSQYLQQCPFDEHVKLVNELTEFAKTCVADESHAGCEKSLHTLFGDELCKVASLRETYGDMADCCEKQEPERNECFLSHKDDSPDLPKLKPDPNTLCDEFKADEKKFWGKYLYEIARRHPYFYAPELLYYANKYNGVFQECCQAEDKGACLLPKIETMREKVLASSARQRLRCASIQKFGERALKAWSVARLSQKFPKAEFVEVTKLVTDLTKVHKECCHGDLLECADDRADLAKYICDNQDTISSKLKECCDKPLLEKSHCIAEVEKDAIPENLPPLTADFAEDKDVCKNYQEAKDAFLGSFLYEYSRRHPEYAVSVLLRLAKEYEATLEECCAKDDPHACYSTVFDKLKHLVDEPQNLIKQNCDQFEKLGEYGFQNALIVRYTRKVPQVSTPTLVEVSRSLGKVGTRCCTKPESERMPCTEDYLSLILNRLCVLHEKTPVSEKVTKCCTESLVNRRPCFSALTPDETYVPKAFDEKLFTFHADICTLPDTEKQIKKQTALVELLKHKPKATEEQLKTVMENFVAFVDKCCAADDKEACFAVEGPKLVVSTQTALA

## O=c1ccc2ccc(O)cc2o1 [7-Hydroxy Coumarine, reference compound]
In vitro [1]
  half-life: 8.5 min

## C[C@H](CCC(=O)O)[C@H]1CC[C@H]2[C@@H]3[C@H](O)C[C@@H]4C[C@H](O)CC[C@]4(C)[C@H]3C[C@H](O)[C@]12C [CA, cholic acid]
diet-induced obese mice
  prevention and treatment of metabolic syndrome: efficiently prevents and treats metabolic syndrome
FXR
  FXR Activation EC50: No activity
[2]; id infusion
  SV0: maximum bile secretion rate: 64 ± 6 (μL/min)/kg bw
[2]; iv infusion
  SV0: maximum bile secretion rate: (78 ± 8) (μL/min)/kg bw
LXRα
  LXRα Activation EC50: No activity

## C[C@H](CCC(=O)O)[C@H]1CC[C@H]2[C@@H]3[C@H](O)C[C@@H]4C[C@H](O)CC[C@]4(C)[C@H]3CC[C@]12C [CDCA, ChenoDeoxyCholicAcid]
CAR; read-out: CAR Activation EC50
  EC50: > 250 µM
Bovine serum albumin [3]
  Albumin Binding: 93%
PPARδ
  PPARδ Activation EC50: No activity
[4]
  CMC […] Na+: 3.2 mM
  STCMC (surface tension at CMC): 45.5 Dyne/cm
TGR5
  TGR5 Data Efficacy: 100%
VDR
  VDR Activation EC50: No activity
[2]; duodenal infusion 1 μmol/kg/min, 1 hour
  maximum bile flow rate: ≤ 4.8 mL/h/kg
[2]; id infusion
  SV0: maximum bile secretion rate: 57 ± 7 (μL/min)/kg bw
[2]; iv infusion
  SV0: maximum bile secretion rate: (51 ± 9) (μL/min)/kg bw
[5]
  LogPA- (1-octanol-water partition coefficient, ionized species): 2.2
HepG2 cells [6]
  EC50: 890 µM
LXRα
  LXRα Activation EC50: No activity
Intestinal bacteria
  metabolism (7-dehydroxylation) to lithocholic acid: almost completely metabolized
Intestinal bacteria; human
  half-life time: almost one hour
HepG2 cells [7]
  EC50: > 1000 µM
[8]; iv
  fraction unbound at 4 h: 0.04
[8]; other: duodenal infusion (id)
  fraction unbound at 4 h: 0.03 ± 0.01

## C[C@H](CCC(=O)O)[C@H]1CCC2C3C(CC[C@@]21C)[C@@]1(C)CC[C@@H](O)CC1[C@@H](C)[C@@H]3O (stereo partly shown) [Compound 6MUDCA]
[9]
  Ws (water solubility, protonated species): 28* μM
[10]
  LogPA- (1-octanol-water partition coefficient, ionized species): 1.3*
Bovine serum albumin [11]
  Albumin Binding: 80* %
[12]
  CMC […] Na+: 4.2* mM

## C[C@H](CCC(=O)O)[C@H]1CC[C@H]2[C@@H]3CC[C@@H]4C[C@H](O)CC[C@]4(C)[C@H]3CC[C@]12C [LCA, lithocholic acid]
CAR
  CAR Activation EC50: No activity
In vitro [13]
  EC50 at 4 h: 84 µM
PPARδ
  PPARδ Activation EC50: No activity
FXR
  FXR Activation EC50: No activity
VDR
  VDR Activation EC50: No activity
HepG2 cells [6]
  EC50: 65 µM
LXRα
  LXRα Activation EC50: No activity
HepG2 cells [7]
  EC50: 105 µM

## Ex-4: the GLP-1 receptor agonist Ex-4
wild-type mice
  locomotor activity: efficiently and dose-dependently reduced locomotor activity

Source: patent US8114862B2, “TGR5 modulators and methods of use thereof” (Intercept Pharmaceuticals, Inc., priority 2008, dated 2012)
